This note sets out measurements from US12492188B2, “1H-benzo[D]imidazole derivatives as TLR9 inhibitors for the treatment of fibrosis” (BRISTOL-MYERS SQUIBB COMPANY, priority 2020, dated 2025).

Common to all, as to format: cell-based
Test [1] has as its target T1, human TLR9 (Homo sapiens, UniProt Q9NR96).
T1 construct: host or cells: HEK-Blue cells (HEK293-derived reporter line)
T1 sequence (Q9NR96 26-1032): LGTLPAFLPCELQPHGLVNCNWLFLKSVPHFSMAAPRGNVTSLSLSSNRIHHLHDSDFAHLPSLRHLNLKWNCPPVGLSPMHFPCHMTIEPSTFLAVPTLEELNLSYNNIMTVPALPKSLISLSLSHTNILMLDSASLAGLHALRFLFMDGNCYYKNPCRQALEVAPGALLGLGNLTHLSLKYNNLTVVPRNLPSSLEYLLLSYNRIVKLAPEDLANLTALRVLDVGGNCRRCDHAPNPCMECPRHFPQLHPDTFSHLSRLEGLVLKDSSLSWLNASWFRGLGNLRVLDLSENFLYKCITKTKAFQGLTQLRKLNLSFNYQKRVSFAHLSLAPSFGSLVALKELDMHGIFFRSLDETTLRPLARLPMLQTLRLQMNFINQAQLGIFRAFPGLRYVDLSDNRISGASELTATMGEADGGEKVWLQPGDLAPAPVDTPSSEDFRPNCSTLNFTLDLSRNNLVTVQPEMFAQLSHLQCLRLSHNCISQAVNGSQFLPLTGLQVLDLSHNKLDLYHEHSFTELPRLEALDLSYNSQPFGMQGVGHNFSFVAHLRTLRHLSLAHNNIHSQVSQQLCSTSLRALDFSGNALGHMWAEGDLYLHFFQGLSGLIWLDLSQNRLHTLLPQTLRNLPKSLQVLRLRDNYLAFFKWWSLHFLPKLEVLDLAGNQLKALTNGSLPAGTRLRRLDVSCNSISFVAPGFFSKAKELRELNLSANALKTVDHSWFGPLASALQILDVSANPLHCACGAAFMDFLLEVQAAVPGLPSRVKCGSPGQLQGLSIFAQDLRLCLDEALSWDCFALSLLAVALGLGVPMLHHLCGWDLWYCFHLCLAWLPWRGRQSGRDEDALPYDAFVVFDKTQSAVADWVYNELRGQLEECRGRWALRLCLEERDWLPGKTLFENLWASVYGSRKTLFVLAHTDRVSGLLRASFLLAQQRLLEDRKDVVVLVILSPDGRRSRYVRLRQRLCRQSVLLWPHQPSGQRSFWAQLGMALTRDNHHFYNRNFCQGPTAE
Nature of the test: TLR9 inhibition reporter assay (HEK-Blue cells, secreted embryonic alkaline phosphatase reporter). Summed up:
(§1)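 Cells seeded at 15000 (TLR7), 20,000 (TLR8) or 25,000 (TLR9) per well; compound 0.05 nM–50 μM, 30 min RT pre-incubation. Agonists: gardiquimod 7.5 μM, R848 15.9 μM, ODN2006 5 nM respectively. 22 h, 37 °C; SEAP via HEK-Blue Detection; % inhibition vs agonist+DMSO and known-inhibitor wells.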
(In general: In a reporter assay the amount or activity of a reporter protein is the signal.)

In test [2] the target is T2, human TLR7 (Homo sapiens, UniProt Q9NYK1).
T2 construct: host or cells: HEK-Blue cells (HEK293-derived reporter line)
T2 sequence (Q9NYK1 27-1049): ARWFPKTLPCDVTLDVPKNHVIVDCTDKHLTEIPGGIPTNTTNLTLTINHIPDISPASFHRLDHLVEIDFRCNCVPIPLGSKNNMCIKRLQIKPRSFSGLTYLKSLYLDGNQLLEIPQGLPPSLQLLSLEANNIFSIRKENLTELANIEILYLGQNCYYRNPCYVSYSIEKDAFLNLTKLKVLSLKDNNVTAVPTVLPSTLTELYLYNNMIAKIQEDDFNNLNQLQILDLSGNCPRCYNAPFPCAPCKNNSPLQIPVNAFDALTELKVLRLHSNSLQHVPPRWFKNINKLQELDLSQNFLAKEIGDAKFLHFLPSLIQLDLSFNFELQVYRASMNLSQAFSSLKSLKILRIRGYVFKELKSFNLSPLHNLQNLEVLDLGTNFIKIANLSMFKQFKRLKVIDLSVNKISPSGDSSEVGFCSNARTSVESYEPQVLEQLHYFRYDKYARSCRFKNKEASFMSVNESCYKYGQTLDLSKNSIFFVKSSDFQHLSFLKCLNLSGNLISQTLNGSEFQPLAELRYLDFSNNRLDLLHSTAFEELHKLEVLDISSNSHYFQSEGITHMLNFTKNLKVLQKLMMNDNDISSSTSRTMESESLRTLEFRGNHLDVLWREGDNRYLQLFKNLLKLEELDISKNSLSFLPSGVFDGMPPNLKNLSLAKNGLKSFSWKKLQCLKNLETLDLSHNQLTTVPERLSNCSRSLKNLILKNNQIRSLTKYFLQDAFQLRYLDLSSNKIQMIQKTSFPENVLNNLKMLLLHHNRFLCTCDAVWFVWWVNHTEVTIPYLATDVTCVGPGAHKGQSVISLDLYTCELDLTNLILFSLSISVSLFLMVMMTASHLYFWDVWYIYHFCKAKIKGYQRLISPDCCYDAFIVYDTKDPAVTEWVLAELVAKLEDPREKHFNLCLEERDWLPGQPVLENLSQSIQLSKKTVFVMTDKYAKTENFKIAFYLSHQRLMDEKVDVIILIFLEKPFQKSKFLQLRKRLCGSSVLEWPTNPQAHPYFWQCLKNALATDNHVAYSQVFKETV
In words: TLR7 inhibition reporter assay (HEK-Blue cells, secreted embryonic alkaline phosphatase reporter). The conditions noted are these: HEK-Blue cells overexpressing human TLR7, stimulated with gardiquimod 7.5 μM; read-out: TLR 7 IC50. Summed up:
as §1

Test [3] has as its target T3, human TLR8 (Homo sapiens, UniProt Q9NR97).
T3 construct: host or cells: HEK-Blue cells (HEK293-derived reporter line)
T3 sequence (Q9NR97 27-1041): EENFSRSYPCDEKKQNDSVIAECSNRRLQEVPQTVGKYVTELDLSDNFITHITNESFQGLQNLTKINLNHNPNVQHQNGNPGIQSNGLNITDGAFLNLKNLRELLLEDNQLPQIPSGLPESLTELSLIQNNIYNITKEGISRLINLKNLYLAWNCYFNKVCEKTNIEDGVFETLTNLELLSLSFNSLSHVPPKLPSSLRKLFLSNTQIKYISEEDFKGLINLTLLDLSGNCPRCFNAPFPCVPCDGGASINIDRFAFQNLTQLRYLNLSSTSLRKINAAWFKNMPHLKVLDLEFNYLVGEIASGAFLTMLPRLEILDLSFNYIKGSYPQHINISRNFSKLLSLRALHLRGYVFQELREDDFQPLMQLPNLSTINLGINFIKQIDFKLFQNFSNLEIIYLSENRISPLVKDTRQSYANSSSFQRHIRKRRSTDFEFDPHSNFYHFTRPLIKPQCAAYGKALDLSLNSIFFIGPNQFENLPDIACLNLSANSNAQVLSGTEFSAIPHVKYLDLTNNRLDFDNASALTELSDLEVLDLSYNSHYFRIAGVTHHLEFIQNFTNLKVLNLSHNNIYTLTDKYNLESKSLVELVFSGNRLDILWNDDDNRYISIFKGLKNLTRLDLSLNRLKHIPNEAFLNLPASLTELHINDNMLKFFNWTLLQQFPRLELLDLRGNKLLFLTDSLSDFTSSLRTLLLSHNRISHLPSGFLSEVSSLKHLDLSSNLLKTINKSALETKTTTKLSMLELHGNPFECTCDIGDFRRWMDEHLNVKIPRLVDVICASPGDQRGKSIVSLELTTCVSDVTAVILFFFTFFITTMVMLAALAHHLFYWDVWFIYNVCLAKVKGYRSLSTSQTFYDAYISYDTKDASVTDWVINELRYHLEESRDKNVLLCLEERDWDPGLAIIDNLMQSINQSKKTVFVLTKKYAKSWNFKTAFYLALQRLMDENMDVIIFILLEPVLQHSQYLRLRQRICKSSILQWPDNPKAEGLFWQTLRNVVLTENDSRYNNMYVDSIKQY
Nature of the test: TLR8 inhibition reporter assay (HEK-Blue cells, secreted embryonic alkaline phosphatase reporter). The conditions noted are these: HEK-Blue cells overexpressing human TLR8, stimulated with R848 15.9 μM; read-out: TLR 8 IC50. A digest of the protocol:
as §1

Where [4] appears, read: HEK-Blue cells overexpressing human TLR9, stimulated with ODN2006 5 nM, read-out: TLR 9 IC50.
The mark [5] stands for this setting: HEK-Blue human TLR9 reporter cells.

Where two headings read alike, the source gives them in different places.

Consider `Cn1c(-c2ccc(S(C)(=O)=O)cc2)nc2c(F)cc(C3CCN(C4CC5CCC(C4)N5C4CCOCC4)CC3)cc21` (single isomer, unassigned) [Example 288, 4-fluoro-1-methyl-2-(4-(methylsulfonyl)phenyl)-6-(1-(8-(tetrahydro-2H-pyran-4-yl)-8-azabicyclo[3.2.1]octan-3-yl)piperidin-4-yl)-1H-benzo[d]imidazole], for which the IC50 (as a rule, the midpoint of a concentration-inhibition curve) in test [1] (setting [4]) was 105 nM; in test [1] (setting [5]) it was 110 nM; in test [2], 31700 nM; in test [3], more than 50000 nM.
The matching figures for `Cn1c(-c2ccc(S(C)(=O)=O)cc2)nc2c(F)cc(C3CCN(C4CC5CCC(C4)N5C4CCOCC4)CC3)cc21` (single isomer, unassigned) [Example 289, 4-fluoro-1-methyl-2-(4-(methylsulfonyl)phenyl)-6-(1-(8-(tetrahydro-2H-pyran-4-yl)-8-azabicyclo[3.2.1]octan-3-yl)piperidin-4-yl)-1H-benzo[d]imidazole]: 29 nM, 29 nM, 3200 nM and more than 50000 nM.
The corresponding values for `COCCN1C2CCC1CC(N1CCC(c3cc(F)c4nc(-c5ccc(S(C)(=O)=O)cc5)n(C)c4c3)CC1)C2` (single isomer, unassigned) [Example 290, 4-fluoro-6-(1-(8-(2-methoxyethyl)-8-azabicyclo[3.2.1]octan-3-yl)piperidin-4-yl)-1-methyl-2-(4-(methylsulfonyl)phenyl)-1H-benzo[d]imidazole] are 144 nM, 150 nM, 22200 nM and more than 50000 nM.
The corresponding values for `COCCN1C2CCC1CC(N1CCC(c3cc(F)c4nc(-c5ccc(S(C)(=O)=O)cc5)n(C)c4c3)CC1)C2` (single isomer, unassigned) [Example 291, 4-fluoro-6-(1-(8-(2-methoxyethyl)-8-azabicyclo[3.2.1]octan-3-yl)piperidin-4-yl)-1-methyl-2-(4-(methylsulfonyl)phenyl)-1H-benzo[d]imidazole] are 57 nM, 57 nM, 1800 nM and 34800 nM.
On to `Cn1c(-c2ccc(S(C)(=O)=O)cc2)nc2c(F)cc(C3CCN(C4CC5CCC(C4)N5C4CCC4)CC3)cc21` (single isomer, unassigned) [Example 292, 6-(1-(8-cyclobutyl-8-azabicyclo[3.2.1]octan-3-yl)piperidin-4-yl)-4-fluoro-1-methyl-2-(4-(methylsulfonyl)phenyl)-1H-benzo[d]imidazole], for which the IC50 in test [1] (setting [4]) was 147 nM; in test [1] (setting [5]), 150 nM; in test [2], 21700 nM; in test [3], more than 50000 nM.
The corresponding values for `Cn1c(-c2ccc(S(C)(=O)=O)cc2)nc2c(F)cc(C3CCN(C4CC5CCC(C4)N5C4CCC4)CC3)cc21` (single isomer, unassigned) [Example 293, 6-(1-(8-cyclobutyl-8-azabicyclo[3.2.1]octan-3-yl)piperidin-4-yl)-4-fluoro-1-methyl-2-(4-(methylsulfonyl)phenyl)-1H-benzo[d]imidazole] are 11 nM, 11 nM, 8200 nM and 44200 nM.
Regarding `CC(C)N1CCCC(N2CCC(c3cc(F)c4nc(-c5ccc(S(C)(=O)=O)cc5)n(C)c4c3)CC2)CC1` (single isomer, unassigned) [Example 294, 4-fluoro-6-(1-(1-isopropylazepan-4-yl)piperidin-4-yl)-1-methyl-2-(4-(methylsulfonyl)phenyl)-1H-benzo[d]imidazole], the IC50 is 55 nM in test [1] (setting [4]), 55 nM in test [1] (setting [5]), 2300 nM in test [2] and more than 50000 nM in test [3].
In the case of `CC(C)N1CCCC(N2CCC(c3cc(F)c4nc(-c5ccc(S(C)(=O)=O)cc5)n(C)c4c3)CC2)CC1` (single isomer, unassigned) [Example 295, 4-fluoro-6-(1-(1-isopropylazepan-4-yl)piperidin-4-yl)-1-methyl-2-(4-(methylsulfonyl)phenyl)-1H-benzo[d]imidazole], the IC50 in test [1] (setting [4]) was 24 nM; in test [1] (setting [5]) it was 24 nM; in test [2] it was 700 nM; in test [3], more than 50000 nM.
On to `Cn1c(-c2ccc(S(C)(=O)=O)cc2)nc2c(F)cc(C3CCN(C4CCCN(CC5CC5)CC4)CC3)cc21` (single isomer, unassigned) [Example 298, 6-(1-(1-(cyclopropylmethyl)azepan-4-yl)piperidin-4-yl)-4-fluoro-1-methyl-2-(4-(methylsulfonyl)phenyl)-1H-benzo[d]imidazole], for which the half-maximal inhibitory concentration (IC50) in test [1] (setting [4]) is 58 nM; in test [1] (setting [5]), 58 nM; in test [2], 3000 nM; in test [3] it was more than 50000 nM.
